Results from US20060069132A1, “Azolecarboxamide herbicides” (priority 2004, published 2006).

Experiments:
rice [1] = assay: Test B pre-/postemergence herbicide test; format: in vivo, Oryza sativa; conditions: 0 = no effect, 100 = complete control, preemergence
How it was run: (§1)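 Formulation: non-phytotoxic solvent mix with surfactant. Timing: preemergence on seed and postemergence on 2–18 cm plants, applied concurrently. Readout after 13–15 d greenhouse: visual 0–100 control rating against controls.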

Surinam grass = assay: Test B pre-/postemergence herbicide test; format: in vivo, Urochloa decumbens; conditions: for Surinam Grass plant response rating: postemergence, scale 0 (no effect) to 100 (complete control)
How it was run: as §1

ducksalad [2] = assay: Test C flooded paddy test; format: in vivo, Heteranthera limosa
rice [3] = assay: Test B flooded paddy test; format: in vivo, Oryza sativa; conditions: 1000 g ai/ha, visual rating, scale 0 to 100 (0 no effect, 100 complete control), 13 to 15 days
How it was run: (§2)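 Scale 0–100: zero equals no visible effect, 100 complete control, judged by eye relative to controls. Timing: 13 to 15 days in greenhouse post-treatment. Growth stage at spraying: two leaves (paddy) or one to four leaves, 2–18 cm (postemergence).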

morningglory = assay: Test B pre-/postemergence herbicide test; format: in vivo, Ipomoea coccinea; conditions: for Morningglory plant response rating: postemergence, scale 0 (no effect) to 100 (complete control)
How it was run: as §1

cocklebur = assay: Test B pre-/postemergence herbicide test; format: in vivo, Xanthium strumarium; conditions: for Cocklebur plant response rating: postemergence, scale 0 (no effect) to 100 (complete control)
How it was run: as §1

wild oat = assay: Test B postemergence herbicide test; format: in vivo, Avena fatua; conditions: postemergence, visual rating, scale 0 (no effect) to 100 (complete control)
How it was run: (§3)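 Each value is a visual 0–100 response rating taken against controls 13 to 15 days after treatment in the greenhouse. Plants received formulated chemical postemergence at the 1- to 4-leaf stage or, in flooded paddy, at the 2-leaf stage.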

lambsquarters = assay: Test B pre-/postemergence herbicide test; format: in vivo, Chenopodium album; conditions: visual rating; for Lambsquarters plant response rating: postemergence, scale 0 (no effect) to 100 (complete control)
How it was run: as §1

ducksalad [4] = assay: Test B flooded paddy test; format: in vivo, Heteranthera limosa; conditions: 1000 g ai/ha, visual rating, scale 0 to 100 (0 no effect, 100 complete control), 13 to 15 days
How it was run: as §2

[5] = system: small flower umbrella sedge; assay: Test B flooded paddy test; format: in vivo, Cyperus difformis; conditions: 1000 g ai/ha, visual rating, scale 0 to 100 (0 no effect, 100 complete control), 13 to 15 days
How it was run: as §2

large crabgrass = assay: Test B pre-/postemergence herbicide test; format: in vivo, Digitaria sanguinalis; conditions: for Crabgrass, Large plant response rating: postemergence, scale 0 (no effect) to 100 (complete control)
How it was run: as §1

giant foxtail = assay: Test B pre-/postemergence herbicide test; format: in vivo, Setaria faberi; conditions: for Foxtail, Giant plant response rating: postemergence, scale 0 (no effect) to 100 (complete control)
How it was run: as §1

barnyardgrass [6] = assay: Test B flooded paddy test; format: in vivo, Echinochloa crus-galli; conditions: 1000 g ai/ha, visual rating, scale 0 to 100 (0 no effect, 100 complete control), 13 to 15 days
How it was run: as §2

[7] = system: smallflower umbrella sedge; assay: Test C flooded paddy test; format: in vivo, Cyperus difformis
pigweed = assay: Test B pre-/postemergence herbicide test; format: in vivo, Amaranthus retroflexus; conditions: for Pigweed plant response rating: postemergence, scale 0 (no effect) to 100 (complete control)
How it was run: as §1

corn = assay: Test B pre-/postemergence herbicide test; format: in vivo, Zea mays; conditions: for Corn plant response rating: postemergence, scale 0 (no effect) to 100 (complete control)
How it was run: as §1

barnyardgrass [8] = assay: Test C flooded paddy test; format: in vivo, Echinochloa crus-galli
How it was run: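 Ratings (0 = no effect, 100 = complete control) come from visual comparison with untreated plants after 12 to 14 days in the greenhouse. Treatment was postemergence at the 1- to 4-leaf stage (2–18 cm), or at the 2-leaf stage for the flooded paddy barnyardgrass.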

blackgrass = assay: Test B postemergence herbicide test; format: in vivo, Alopecurus myosuroides; conditions: postemergence, visual rating, scale 0 (no effect) to 100 (complete control)
How it was run: as §2

wheat = assay: Test B postemergence herbicide test; format: in vivo, Triticum aestivum; parameters: key to Wheat plant response rating: 0 = no effect, 100 = complete control; conditions: postemergence, visual rating, scale 0 (no effect) to 100 (complete control)
How it was run: as §3

barnyardgrass [9] = assay: Test B pre-/postemergence herbicide test; format: in vivo, Echinochloa crus-galli; conditions: for Barnyardgrass plant response rating: postemergence, scale 0 (no effect) to 100 (complete control)
How it was run: as §1

velvetleaf = assay: Test B pre-/postemergence herbicide test; format: in vivo, Abutilon theophrasti; conditions: for Velvetleaf plant response rating: postemergence, scale 0 (no effect) to 100 (complete control)
How it was run: as §1

rice [10] = assay: Test C flooded paddy test; format: in vivo, Oryza sativa
How it was run: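 Injury scored visually against controls on a 0 (no effect) to 100 (complete control) scale, 12 to 14 days after treatment in greenhouse. Flooded paddy plants treated at 2-leaf stage; postemergence plants at 1- to 4-leaf stage, 2 to 18 cm tall.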

[11] = 125 g ai/ha, 0 = no effect, 100 = complete control, preemergence
[12] = 500 g ai/ha, visual rating, 0 = no effect, 100 = complete control, preemergence
[13] = 62 g ai/ha, scale 0 to 100 (0 no effect, 100 complete control)
[14] = 125 g ai/ha, scale 0 to 100 (0 no effect, 100 complete control)
[15] = 250 g ai/ha, scale of 0 to 100, 0 is no effect, 100 is complete control
[16] = 500 g ai/ha, visual rating after 12 to 14 days, scale 0 to 100 (0 no effect, 100 complete control)

With `CCNC(=O)c1ccc(F)c(NC(=O)c2sc(C(C)(C)C)nc2CC)c1` [Compound 226] the “Rice plant response rating (0 to 100 scale)” value (rice [1]; 125 g ai/ha) was 20, the “Plant response rating, Rice” value (rice [1]; 500 g ai/ha, visual rating) was 30 and the “Surinam Grass plant response rating (0 to 100 scale)” value (Surinam grass; [11]) was 10. For the same compound, the “Plant response rating, Surinam Grass” value (Surinam grass; [12]) was 40, the “Surinam Grass plant response rating” value (Surinam grass; 125 g ai/ha, visual rating) was 10 and the “Surinam Grass plant response rating” value (Surinam grass; 500 g ai/ha, visual rating) was 20. For the same compound, the “Ducksalad plant response rating” value (ducksalad [2]; [13]) was 0, the “Ducksalad plant response rating” value (ducksalad [2]; [14]) was 0 and the “Ducksalad plant response rating” value (ducksalad [2]; [15]) was 40. For the same compound, the “Plant response rating, Ducksalad” value (ducksalad [2]; [16]) was 65, the “Rice plant response rating” value (rice [3]) was 80 and the “Morningglory plant response rating (0 to 100 scale)” value (morningglory; [11]) was 0. For the same compound, the “Plant response rating, Morningglory” value (morningglory; [12]) was 10, the “Morningglory plant response rating” value (morningglory; 125 g ai/ha, visual rating) was 30 and the “Morningglory plant response rating” value (morningglory; 500 g ai/ha, visual rating) was 80. The “Cocklebur plant response rating (0 to 100 scale)” value (cocklebur; [11]) was 0, the “Plant response rating, Cocklebur” value (cocklebur; [12]) was 0 and the “Cocklebur plant response rating” value (cocklebur; 125 g ai/ha, visual rating) was 10. The “Cocklebur plant response rating” value (cocklebur; 500 g ai/ha, visual rating) was 20, the “Oat, Wild plant response rating” value (wild oat; 125 g ai/ha) was 30 and the “Oat, Wild plant response rating” value (wild oat; 500 g ai/ha) was 30. The “Plant response rating, Lambsquarters” value (lambsquarters; 500 g ai/ha, 0 = no effect, 100 = complete control, preemergence) was 90, the “Lambsquarters plant response rating” value (lambsquarters; 125 g ai/ha) was 40 and the “Lambsquarters plant response rating” value (lambsquarters; 500 g ai/ha) was 60. For the same compound, the “Ducksalad plant response rating” value (ducksalad [4]) was 70, the “Sedge, Umbrella plant response rating” value [5] was 80 and the “Crabgrass, Large plant response rating (0 to 100 scale)” value (large crabgrass; [11]) was 20. The “Plant response rating, Crabgrass, Large” value (large crabgrass; [12]) was 100, the “Crabgrass, Large plant response rating” value (large crabgrass; 125 g ai/ha, visual rating) was 20 and the “Crabgrass, Large plant response rating” value (large crabgrass; 500 g ai/ha, visual rating) was 20. For the same compound, the “Foxtail, Giant plant response rating (0 to 100 scale)” value (giant foxtail; [11]) was 20, the “Plant response rating, Foxtail, Giant” value (giant foxtail; [12]) was 70 and the “Foxtail, Giant plant response rating” value (giant foxtail; 125 g ai/ha, visual rating) was 20. For the same compound, the “Foxtail, Giant plant response rating” value (giant foxtail; 500 g ai/ha, visual rating) was 20, the “Barnyardgrass plant response rating” value (barnyardgrass [6]) was 80 and the “Sedge, Umbrella plant response rating” value [7, 13] was 10. For the same compound, the “Sedge, Umbrella plant response rating” value [7, 14] was 10, the “Sedge, Umbrella plant response rating” value [7, 15] was 40 and the “Plant response rating, Sedge, Umbrella” value [7, 16] was 70. For the same compound, the “Pigweed plant response rating (0 to 100 scale)” value (pigweed; [11]) was 40, the “Plant response rating, Pigweed” value (pigweed; [12]) was 70 and the “Pigweed plant response rating” value (pigweed; 125 g ai/ha, visual rating) was 30. For the same compound, the “Pigweed plant response rating” value (pigweed; 500 g ai/ha, visual rating) was 60, the “Corn plant response rating (0 to 100 scale)” value (corn; [11]) was 0 and the “Plant response rating, Corn” value (corn; [12]) was 20. For the same compound, the “Corn plant response rating” value (corn; 125 g ai/ha, visual rating) was 10, the “Corn plant response rating” value (corn; 500 g ai/ha, visual rating) was 40 and the “Barnyardgrass plant response rating” value (barnyardgrass [8]; [13]) was 0. For the same compound, the “Barnyardgrass plant response rating” value (barnyardgrass [8]; [14]) was 0, the “Barnyardgrass plant response rating” value (barnyardgrass [8]; [15]) was 50 and the “Plant response rating, Barnyardgrass” value (barnyardgrass [8]; [16]) was 60. The “Blackgrass plant response rating” value (blackgrass; 125 g ai/ha) was 20, the “Blackgrass plant response rating” value (blackgrass; 500 g ai/ha) was 20 and the “Wheat plant response rating” value (wheat; 125 g ai/ha) was 20. For the same compound, the “Wheat plant response rating” value (wheat; 500 g ai/ha) was 30, the “Barnyardgrass plant response rating (0 to 100 scale)” value (barnyardgrass [9]; [11]) was 10 and the “Plant response rating, Barnyardgrass” value (barnyardgrass [9]; [12]) was 60. For the same compound, the “Barnyardgrass plant response rating” value (barnyardgrass [9]; 125 g ai/ha, visual rating) was 10, the “Barnyardgrass plant response rating” value (barnyardgrass [9]; 500 g ai/ha, visual rating) was 20 and the “Velvetleaf plant response rating (0 to 100 scale)” value (velvetleaf; [11]) was 10. For the same compound, the “Plant response rating, Velvetleaf” value (velvetleaf; [12]) was 50, the “Velvetleaf plant response rating” value (velvetleaf; 125 g ai/ha, visual rating) was 20 and the “Velvetleaf plant response rating” value (velvetleaf; 500 g ai/ha, visual rating) was 20. For the same compound, the “Rice plant response rating” value (rice [10]; [13]) was 0, the “Rice plant response rating” value (rice [10]; [14]) was 25 and the “Rice plant response rating” value (rice [10]; [15]) was 45. For the same compound, the “Plant response rating, Rice” value (rice [10]; [16]) was 70.
